This is an account of results in US7241861B2, “High density lipoprotein-reactive peptides” (Japan Immunoresearch Laboratories Co., Ltd., priority 2001, dated 2007).

The subject of assay [1] is quail arteriosclerosis model. Briefly: Effect test by use of an arteriosclerosis model (high-cholesterol-fed quails, aortic arch histology). The format is in vivo. The text has this:
Cholesterol (Wako Pure Chemical Industries, Ltd.) and corn oil (Corn Germ Oil 100; Ajinomoto Co., Inc.) were incorporated into a commercially available feed (product of Natural Pet Foods, “Chicks and nestlings (Quail)”) so as to attain final concentrations of 2% and 15%, respectively, to thereby prepare a high-cholesterol feed.
Healthy quails were bred while being allowed to freely intake the high-cholesterol feed for eight weeks. From five weeks after the beginning of breeding, a solution of the test peptide (B-100FL) in saline (1.0 mg/mL) was administered to the brachial (wing) vein (200 μL; 200 μg/body) twice a week at the interval of two through three days. In a manner similar to that described above, only saline was administered to the quails of a control group.
After the quails had been bred for eight weeks, the head of each quail was cut for exsanguination, and an aorta sample was obtained. The aorta sample was immediately fixed in a fixing solution (10% formalin) for three days. Subsequently, a tissue specimen (a frozen section having a thickness of 4 μm) of the aortic arch (where arteriosclerosis foci are most likely to occur) was prepared. The tissue specimen was subjected to hematoxylin-and-eosin staining (routine staining), and to oil-red staining (fat staining), followed by examination under a microscope.

Assay [2] deals with anti-apo B-100 monoclonal antibody (JI-H). Briefly: Reactivity with anti-apo B-100 monoclonal antibody (JI-H) by ELISA on peptide-coated plate. The format is binding. The note with it: OD450 vs immobilized peptide concentration (FIG. 1). The source says: (2) Reactivity with anti-apo b-100 Monoclonal Antibody (JI-H: J. Clin. Ligand Assay, 19 (3), 177 (1999))
The reactivity was confirmed through ELISA in accordance with a conventional method by using a plate coated with the peptide obtained above (B100FL) (see Japanese Patent Application Laid-Open (kokai) No. 4-104798).
A general note: ELISA stands for enzyme-linked immunosorbent assay.

A further assay has as its system HDL cholesterol. Briefly: Reactivity with HDL: HDL sample reacted with peptide-bound affinity gel, analysis of unbound fraction. The assay is classed as binding, Human. Conditions: for reduction of total cholesterol level of HDL: Example 5, total cholesterol level of applied HDL sample 12.7 mg/dl. As for the experimental part:
The peptide obtained in (1) above (B100FL, 0.1 mg) was added to affinity gel (25 μL) to which an anti-apo B-100 monoclonal antibody (JI-H) had been immobilized, whereby a B100FL-bound affinity gel was prepared. A control gel was prepared by treating gel with PBS (not containing B100FL) in a manner similar to the above.
Human plasma (1 mL) was added to affinity gel (2 mL) to which an anti-apo A-I monoclonal antibody had been immobilized, to thereby cause HDL to be specifically bound to the gel. The bound HDL was eluted with 3M sodium thiocyanate, and the buffer of the thus-obtained eluent was changed to PBS through use of a column for desalting, to thereby prepare an HDL sample.
The aforementioned anti-apo A-I monoclonal antibody immobilized affinity gel and anti-apo B-100 monoclonal antibody (JI-H) immobilized affinity gel were prepared in accordance with a conventional method (Japanese Patent Publication (kokoku) No. 7-104351).
The HDL sample (containing 20 μg of apo A-I) was reacted with the B100FL-bound affinity gel for 30 minutes at room temperature. Subsequently, the reaction mixture was left to stand for 15 minutes to thereby cause the gel to precipitate, to thereby remove the gel from the reaction mixture.
Total cholesterol level: Total cholesterol level was determined with a reagent for measuring cholesterol level (L-TCII, Kyowa Medex Co., Ltd.) by means of an autoanalyzer (TBA20R; Toshiba).
Lipoprotein analysis: Lipoprotein was analyzed through HPLC of a lipoprotein analysis system (Lipopropax XL, eluent: TSK eluent LP-1, 1 mL/min., sample volume: 100 μL; Tosoh) by monitoring colors produced by cholesterol.
Protein concentration: Each protein concentration was determined by measuring absorbance (OD280); or through the Lowry method in which each sample (which had been delipidized with ethanol-ether) was subjected to color reaction.
Protein analysis: Protein was analyzed by SDS-gel electrophoresis. Specifically, each sample was subjected to delipidizing treatment and solubilized with 1% SDS, followed by treatment with a buffer (2% SDS/10% glycerol/0.005% BPB/20% 2-mercaptoethanol), to thereby prepare a sample for electrophoresis. The resultant sample was electrophoresed in a 4-20% gradient gel in accordance with a conventional method.
In a manner similar to that described in Example 1 (3), reactivity of PS509 (synthesized in Example 2) with HDL was examined (as a test peptide, B-100FL or PS509 was employed, and the total cholesterol level of the applied HDL sample was 12.7 mg/dl).

For another assay, the system named is RAW264 cells. Briefly: Cholesterol efflux test in RAW264 cells loaded with acetylated LDL. The assay is classed as cell-based, mouse. Conditions: foam with acetylated LDL; peptide 20, 2.0 or 0.2 μg/mL, 24 hours; supernatant cholesterol (FIG. 4). As for the experimental part:
The aforementioned peptides were examined with regard to cholesterol efflux effect from RAW264 cells (a model of atherosclerosis).
Specifically, RAW264 cells (mouse monocytic leukemia cell strain) were added to DMEM medium that had been supplemented with 10% FBS, to thereby prepare a specimen having a concentration of 4×10^5 cells/mL. An aliquot of the specimen (1 mL) was added to each well of a 12-well plate, followed by culture for two days in a CO2 incubator (37° C.). The medium in each well was removed, and the cells in the well were washed once with 1 mL of DMEM containing 0.2% BSA and 20 mM glutamine (hereinafter referred to as “DMEM”). Subsequently, a solution of acetylated LDL in DMEM (40 μg/mL, 1 mL) was added to each well, followed by culture for 24 hours in a CO2 incubator (37° C.), whereby acetylated LDL entered into the cells. The cells were washed twice with PBS supplemented with 0.2% BSA. Thereafter, a solution of dibutyl cAMP in DMEM (0.3 mM, 1 mL) was added to each well, followed by incubation for 2 hours in a CO2 incubator (37° C.).
The test peptide (20 μL) was added to each well so as to attain a final concentration of 20, 2.0, or 0.2 μg/mL, followed by culture for 24 hours in a CO2 incubator (37° C.).
After 24 hours, the supernatant of each well was collected in a microtube, and the microtube was centrifuged for five minutes at 10,000 rpm. The cholesterol level of the supernatant was measured by means of the autoanalyzer described above.
Each test peptide was dissolved in DMSO (5 mg/mL), and the thus-formed solution was diluted with DMEM so as to attain a concentration of 1 mg/mL. Subsequently, the resultant solution was diluted 10-fold or 100-fold with DMEM, to thereby prepare a test sample. Moreover, in order to prepare a control sample, only DMSO was diluted with DMEM so as to attain a final concentration of 0.4, 0.04, or 0.004%; and in order to prepare a positive control sample, delipid HDL was diluted with DMEM so as to attain a concentration of 2.5, 5.0, or 10 μg/mL.

[3] abbreviates: 200 μg/body i.v. twice a week from week 5 to 8, aortic arch section.

For “LLDQLGTTISFERINDVLEHVKHFVINLIGDFEVAEKINAFRAKVHEL IE R (LLDQLGTTISFERINDVLEHVKHFVINLIGDFEVAEKINAFRAKVHELIER) [P51, 51 amino acid residues, the 2,297th to the 2,347th amino acid residues of apo B-100]”, the “lipid accumulation in the internal tunica” value in assay [1] (200 μg/body i.v. (wing vein) twice a week from week 5 to 8 of high-cholesterol feed, aortic arch section) was “a small amount of lipid accumulation was observed”. In assay [1] (setting [3]), the “morphological disorder of the vessel internal tunica” value is on record as “no morphological disorder”; the “thickening of the internal tunica and lipid infiltration into the middle tunica” value is “absent”. In addition, in assay [2], the “reactivity with JI-H” value is “specific reactivity”. Besides, the “reduction of total cholesterol level of HDL” value in the assay on HDL cholesterol is recorded as “about 72 percentage points”. The “peak attributed to cholesterol (HDL-C) in lipoprotein analysis” value in the assay on HDL cholesterol (FIG. 2, HDL sample treated with B100FL-bound gel) is recorded as “does not include a peak”. The “total cholesterol level relative to HDL sample treated with the control gel” value with HDL cholesterol (HDL sample treated with B100FL-bound gel vs control gel) is reported as “about 1/15”. The HDL-C with HDL cholesterol (HDL-cholesterol by lipoprotein analysis (HPLC) of fraction that did not bind to the B100FL gel) is reported as 243.2 Area. Also, the “interaction with cholesterol and cholesterol ester of HDL” value in the assay on HDL cholesterol (conclusion from cholesterol, lipoprotein and SDS-gel analysis) was “has an effect of effluxing cholesterol and cholesterol ester from apoprotein particles of HDL”. In the assay with HDL cholesterol (fraction that did not bind to the B100FL gel, HDL sample containing 20 μg apo A-I, 30 min room temperature), the “Cholesterol (total cholesterol level)” value came to 0.25 mg/dL. Besides, in the assay with RAW264 cells, the “cholesterol efflux effect from RAW264 cells” value (“cholesterol efflux effect” for short) is “strong cholesterol efflux effect”.
As for “LLDQLGTTIS FERINDVLEH VKHF (LLDQLGTTISFERINDVLEHVKHF) [PS506, Apo B-100 position 2,297–2,320]”, the “cholesterol efflux effect” value in the assay with RAW264 cells is listed as “not to exhibit the effect”.
Same read-out and setting: to EKINA FRAKVHEL IE R [PS508] belongs “not to exhibit the effect”.
On to “FERINDVLEH VKHFVINLIG DFEVAEKINA (FERINDVLEHVKHFVINLIGDFEVAEKINA) [PS509, Apo B-100 position 2,307–2,336]”, for which, in the assay with HDL cholesterol, the “reduction of total cholesterol level of HDL” value is reported as “about 48 percentage points”. Also, the “cholesterol efflux effect” value in the assay on RAW264 cells is listed as “strong cholesterol efflux effect”.
With “LLDQLGTTIS FERIND (LLDQLGTTISFERIND) [PS507, Apo B-100 position 2,297–2,312]”, the “cholesterol efflux effect” value with RAW264 cells is on record as “not to exhibit the effect”.
The same measure, in the same setting: to DFEVAEKINA FRAKVHEL IE R [P21] belongs “not to exhibit the effect”; to “LLDQLGTTIS FERINDVLEH VKHFVINLIG (LLDQLGTTISFERINDVLEHVKHFVINLIG) [PS505, Apo B-100 position 2,297–2,326]”, “strong cholesterol efflux effect”.
